US7968591B2, “1,3-disubstituted 4-methyl-1H-pyrrole-2-carboxamides and their use in medicaments” (Gruenenthal GmbH, priority 2006, dated 2011)

Assays:
[1] = biological target: T1, NA transporter (Rattus norvegicus, UniProt Q63380); assay: Noradrenalin uptake inhibition in rat brain synaptosomes; format: biochemical; details: synaptosomes from rat hypothalamus, [3H]-NA
T1 construct: from tissue; host or cells: rat brain hypothalamus, synaptosomes (P2 fraction)
Source text: (§1) I. Method for Determining Noradrenalin and 5-HT Uptake Inhibition:
(§2) Synaptosomes from rat brain regions were freshly isolated for in vitro studies, as described in the publication “The isolation of nerve endings from brain” by E. G. Gray and V. P. Whittaker, J. Anatomy 96, pages 79-88, 1962. The corresponding literature description is hereby introduced as a reference and is deemed to be part of the disclosure.
(§3) The tissue (hypothalamus for the determination of noradrenalin uptake inhibition and medulla and pons for the determination of 5-HT uptake inhibition) was homogenized in ice-cooled 0.32 M sucrose (100 mg of tissue/1 mL) in a glass homogenizer with Teflon pestle using five complete up and down strokes at 840 revolutions/minute. The homogenate was centrifuged at 4° C. for 10 minutes at 1000 g. After subsequent centrifugation at 17000 g for 55 minutes, the synaptosomes (P2 fraction) were obtained, which were resuspended in 0.32 M glucose (0.5 mL/100 mg of original weight). The particular uptake was measured in a 96-well microtitre plate. The volume was 250 μl and incubation proceeded at room temperature (approx. 20-25° C.) under an O2 atmosphere. The incubation time was 7.5 minutes for [^3H]-NA and 5 minutes for [^3H]-5-HT. The 96 samples were then filtered through a Unifilter GF/B® microtitre plate (Packard) and washed with […] of incubated buffer using a “Brabdel MPXRI-96T Cell-Harvester”. The Unifilter GF/B plate was dried for 1 hour at 55° C. The plate was then sealed with a Back Seal® (Packard) and 35 μl of scintillation fluid were added per well (Ultima Gold®, Packard). After sealing with a top Seal® (Packard) and establishing an equilibrium (around 5 hours), radioactivity was determined in a “Trilux 1450 Microbeta” (Wallac).
(§4) A detailed description of the method may additionally be found in the literature, for example in M. Ch. Frink, H.-H. Hennies, W. Engelberger, M. Haurand and B. Wilffert (1996) Arzneim.-Forsch./Drug Res. 46 (III), 11, 1029-1036.

[2] = biological target: T2, 5-HT uptake (Rattus norvegicus, UniProt P31652); assay: 5-HT uptake inhibition in rat brain synaptosomes; format: biochemical; details: synaptosomes from rat medulla and pons, [3H]-5-HT
T2 construct: from tissue; host or cells: rat brain medulla and pons, synaptosomes (P2 fraction)
T2 sequence (P31652 whole entry): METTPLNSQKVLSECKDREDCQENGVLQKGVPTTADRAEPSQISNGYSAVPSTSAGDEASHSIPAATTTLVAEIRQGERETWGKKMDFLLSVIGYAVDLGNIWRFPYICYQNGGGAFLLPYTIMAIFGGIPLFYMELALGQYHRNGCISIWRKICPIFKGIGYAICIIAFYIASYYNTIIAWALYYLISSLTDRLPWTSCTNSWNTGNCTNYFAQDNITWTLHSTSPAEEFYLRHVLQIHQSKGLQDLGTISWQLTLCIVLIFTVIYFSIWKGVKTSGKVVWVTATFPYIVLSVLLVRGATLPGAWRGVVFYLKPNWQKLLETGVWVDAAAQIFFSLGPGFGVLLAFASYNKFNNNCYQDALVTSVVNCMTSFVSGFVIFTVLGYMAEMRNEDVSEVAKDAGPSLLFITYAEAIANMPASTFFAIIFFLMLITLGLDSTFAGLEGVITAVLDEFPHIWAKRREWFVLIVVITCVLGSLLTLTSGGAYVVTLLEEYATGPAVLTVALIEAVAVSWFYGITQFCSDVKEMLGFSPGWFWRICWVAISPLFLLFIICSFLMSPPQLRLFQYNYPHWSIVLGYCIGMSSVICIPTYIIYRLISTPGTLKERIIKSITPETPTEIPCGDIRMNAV
Source text: as §1, §2, §3, §4

T1 sequence (Q63380 1-617): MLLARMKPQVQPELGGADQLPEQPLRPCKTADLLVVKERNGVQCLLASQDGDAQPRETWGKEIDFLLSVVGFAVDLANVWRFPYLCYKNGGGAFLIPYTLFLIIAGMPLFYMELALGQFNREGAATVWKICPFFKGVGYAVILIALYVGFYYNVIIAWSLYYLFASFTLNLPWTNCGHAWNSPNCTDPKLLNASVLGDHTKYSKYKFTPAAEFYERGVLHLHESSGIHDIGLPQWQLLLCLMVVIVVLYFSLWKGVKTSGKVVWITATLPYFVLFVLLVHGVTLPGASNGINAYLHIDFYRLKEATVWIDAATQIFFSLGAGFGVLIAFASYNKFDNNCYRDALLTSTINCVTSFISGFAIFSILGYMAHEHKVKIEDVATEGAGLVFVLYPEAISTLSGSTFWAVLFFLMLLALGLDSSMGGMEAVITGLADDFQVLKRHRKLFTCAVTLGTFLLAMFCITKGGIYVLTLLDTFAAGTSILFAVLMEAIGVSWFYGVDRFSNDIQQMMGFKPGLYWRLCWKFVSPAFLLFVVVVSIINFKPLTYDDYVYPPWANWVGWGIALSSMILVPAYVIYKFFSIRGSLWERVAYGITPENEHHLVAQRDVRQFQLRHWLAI

SMILES	inhibition at 10 µM [1] [%]	inhibition at 10 µM [2] [%]
Cc1cn(Cc2ccccc2)c(C(=O)N2CCN(c3ccccc3Cl)CC2)c1-c1ccc(Cl)cc1 [Example 8, [1-benzyl-3-(4-chlorophenyl)-4-methyl-1H-pyrrol-2-yl]-[4-(2-chlorophenyl)-piperazin-1-yl]-methanone]	70	–
CCn1cc(C)c(-c2ccc(Cl)cc2)c1C(=O)NCc1cccc(OC)c1OC [Example 34, 3-(4-chlorophenyl)-1-ethyl-4-methyl-1H-pyrrole-2-carboxylic acid 2,3-dimethoxybenzylamide]	–	37
Cc1cn(C)c(C(=O)N2CCN(c3ccncc3)CC2)c1-c1ccc(Cl)cc1 [Example 57, [3-(4-chlorophenyl)-1,4-dimethyl-1H-pyrrol-2-yl]-(4-pyridin-4-ylpiperazin-1-yl)-methanone]	–	66
Cc1ccc(Cn2cc(C)c(-c3ccc(C)cc3)c2C(=O)N2CCN(c3ccc(C)cc3C)CC2)cc1 [Example 18, [4-(2,4-dimethylphenyl)-piperazin-1-yl]-[4-methyl-1-(4-methylbenzyl)-3-p-tolyl-1H-pyrrol-2-yl]-methanone]	–	50
COc1ccc(Cn2cc(C)c(-c3ccc(C)cc3)c2C(=O)N(C)CC(=O)OCc2ccccc2)cc1 [Example 39, {[1-(4-methoxybenzyl)-4-methyl-3-p-tolyl-1H-pyrrole-2-carbonyl]-methylamino}-acetic acid benzyl ester]	–	54
CCN(CC)CCCNC(=O)c1c(-c2ccc(Cl)cc2)c(C)cn1CC(C)C [Example 65, 3-(4-chlorophenyl)-1-isobutyl-4-methyl-1H-pyrrole-2-carboxylic acid (3-diethylamino-propyl)-amide]	35	–
Cc1cn(C)c(C(=O)N2CCN(C3CCCCCC3)CC2)c1-c1ccco1 [Example 61, (4-cycloheptylpiperazin-1-yl)-(3-furan-2-yl-1,4-dimethyl-1H-pyrrol-2-yl)-methanone]	34	52
Cc1cn(C)c(C(=O)NCc2ccc(F)cc2C(F)(F)F)c1-c1ccco1 [Example 80, 3-furan-2-yl-1,4-dimethyl-1H-pyrrole-2-carboxylic acid 4-fluoro-2-trifluoromethylbenzylamide]	30	–
COc1cc(OC)c(CN2CCN(C(=O)c3c(-c4ccc(C)cc4)c(C)cn3C)CC2)c(OC)c1 [Example 49, (1,4-dimethyl-3-p-tolyl-1H-pyrrol-2-yl)-[4-(2,4,6-trimethoxybenzyl)-piperazin-1-yl]-methanone]	–	30
Cc1ccccc1N1CCN(C(=O)c2c(-c3ccc(Cl)cc3)c(C)cn2C)CC1 [Example 46, [3-(4-chlorophenyl)-1,4-dimethyl-1H-pyrrol-2-yl]-(4-o-tolylpiperazin-1-yl)-methanone]	63	34
COc1ccc(CNC(=O)c2c(-c3ccco3)c(C)cn2Cc2ccc(F)cc2)c(OC)c1 [Example 3, 1-(4-fluorobenzyl)-3-furan-2-yl-4-methyl-1H-pyrrole-2-carboxylic acid 2,4-dimethoxybenzylamide]	–	58
Cc1cn(CC(C)C)c(C(=O)NCc2ccc(N(C)C)cc2)c1-c1ccc(Cl)cc1 [Example 32, 3-(4-chlorophenyl)-1-isobutyl-4-methyl-1H-pyrrole-2-carboxylic acid 4-dimethylaminobenzylamide]	35	–
CCCCn1cc(C)c(-c2ccc(C)cc2)c1C(=O)NCCc1ccccn1 [Example 4, 1-butyl-4-methyl-3-p-tolyl-1H-pyrrole-2-carboxylic acid (2-pyridin-2-ylethyl)-amide]	–	39
CCn1cc(C)c(-c2ccc(Cl)cc2)c1C(=O)NC(C(=O)OC(C)(C)C)C(C)C (stereo not shown) [Example 36, 2-{[3-(4-chlorophenyl)-1-ethyl-4-methyl-1H-pyrrole-2-carbonyl]-amino}-3-methylbutyric acid tert.-butyl ester]	–	74
Cc1cn(Cc2ccc(F)cc2)c(C(=O)NCCCN(C)C)c1-c1ccco1 [Example 63, 1-(4-fluorobenzyl)-3-furan-2-yl-4-methyl-1H-pyrrole-2-carboxylic acid (3-dimethylamino-propyl)-amide]	57	50
Cc1cn(Cc2ccccc2)c(C(=O)NC(C)c2ccc3ccccc3c2)c1-c1ccco1 (stereo not shown) [Example 81, 1-benzyl-3-furan-2-yl-4-methyl-1H-pyrrole-2-carboxylic acid (1-naphthalen-2-ylethyl)-amide]	57	–
COc1ccc(-c2c(C)cn(C)c2C(=O)N2CCN(c3cccc(Cl)c3)CC2)cc1 [Example 70, [4-(3-chlorophenyl)-piperazin-1-yl]-[3-(4-methoxyphenyl)-1,4-dimethyl-1H-pyrrol-2-yl]-methanone]	69	54
Cc1cn(C)c(C(=O)NCCCN2CCCCC2C)c1-c1ccc(Cl)cc1 (stereo not shown) [Example 78, 3-(4-chlorophenyl)-1,4-dimethyl-1H-pyrrole-2-carboxylic acid [3-(2-methylpiperidin-1-yl)-propyl]-amide]	32	–
COc1ccc(OCCNC(=O)c2c(-c3ccccc3)c(C)cn2Cc2ccccc2)cc1 [Example 62, 1-benzyl-4-methyl-3-phenyl-1H-pyrrole-2-carboxylic acid [2-(4-methoxyphenoxy)-ethyl]-amide]	–	73
COc1ccc(-c2c(C)cn(Cc3ccc(F)cc3)c2C(=O)NC(C)C(=O)OCc2ccccc2)cc1 (stereo not shown) [Example 29, 2-{[1-(4-fluorobenzyl)-3-(4-methoxyphenyl)-4-methyl-1H-pyrrole-2-carbonyl]-amino}-propionic acid benzyl ester]	–	52
COc1ccc(Cn2cc(C)c(-c3ccco3)c2C(=O)NC2CCCc3ccccc32)cc1 (stereo not shown) [Example 37, 3-furan-2-yl-1-(4-methoxybenzyl)-4-methyl-1H-pyrrole-2-carboxylic acid (1,2,3,4-tetrahydro-naphthalen-1-yl)-amide]	–	68
Cc1cn(Cc2ccccc2)c(C(=O)NCCc2ccc(Br)cc2)c1-c1ccco1 [Example 60, 1-benzyl-3-furan-2-yl-4-methyl-1H-pyrrole-2-carboxylic acid [2-(4-bromophenyl)-ethyl]-amide]	–	67
COc1ccc(-c2c(C)cn(Cc3ccc(F)cc3)c2C(=O)NCCc2cccs2)cc1 [Example 35, 1-(4-fluorobenzyl)-3-(4-methoxyphenyl)-4-methyl-1H-pyrrole-2-carboxylic acid (2-thiophen-2-ylethyl)-amide]	37	–
CCOc1ccc(CCNC(=O)c2c(-c3ccc(OC)cc3)c(C)cn2Cc2ccc(F)cc2)cc1 [Example 47, 1-(4-fluorobenzyl)-3-(4-methoxyphenyl)-4-methyl-1H-pyrrole-2-carboxylic acid [2-(4-ethoxyphenyl)-ethyl]-amide]	–	67
Cc1cn(Cc2ccccc2F)c(C(=O)NCCCn2ccnc2)c1-c1ccc(Cl)cc1 [Example 58, 3-(4-chlorophenyl)-1-(2-fluorobenzyl)-4-methyl-1H-pyrrole-2-carboxylic acid (3-imidazol-1-ylpropyl)-amide]	–	50
Cc1ccc(-c2c(C)cn(C)c2C(=O)N2CCN(C3CCCCCC3)CC2)cc1 [Example 24, (4-cycloheptylpiperazin-1-yl)-(1,4-dimethyl-3-p-tolyl-1H-pyrrol-2-yl)-methanone]	33	54
Cc1cn(Cc2ccccc2)c(C(=O)NCc2ccccn2)c1-c1ccccc1 [Example 26, 1-benzyl-4-methyl-3-phenyl-1H-pyrrole-2-carboxylic acid (pyridin-2-ylmethyl)-amide]	33	–
Cc1ccc(-c2c(C)cn(Cc3c(Cl)cccc3Cl)c2C(=O)N(C)CCc2ccccn2)cc1 [Example 19, 1-(2,6-dichlorobenzyl)-4-methyl-3-p-tolyl-1H-pyrrole-2-carboxylic acid methyl-(2-pyridin-2-ylethyl)-amide]	–	39
CCOc1ccc(Br)cc1CN1CCN(C(=O)c2c(-c3ccccc3)c(C)cn2C)CC1 [Example 41, [4-(5-bromo-2-ethoxybenzyl)-piperazin-1-yl]-(1,4-dimethyl-3-phenyl-1H-pyrrol-2-yl)-methanone]	–	37
